Experimental data taken from the NIST ThermoML archive (doi:10.1021/je5001523).

Test: mn = molality of the nth substance listed, in mol/kg
Settings: 101 kPa, Liquid; for viscosity: Capillary tube (Ostwald / Ubbelohde) method

[Cl-].[Li+] [lithium chloride] + O
Settings | mass density, 288.15 K [kg/m3] | mass density, 298.15 K [kg/m3] | mass density, 308.15 K [kg/m3] | mass density, 318.15 K [kg/m3] | viscosity, 288.15 K [mPa·s] | viscosity, 298.15 K [mPa·s] | viscosity, 308.15 K [mPa·s] | viscosity, 318.15 K [mPa·s]
m1 = 0.5 | 1012.05 | 1009.46 | 1006.13 | 1002.07 | 1.212 | 0.94 | 0.76 | 0.629
m1 = 1 | 1023.76 | 1020.94 | – | 1012.4 | 1.288 | 1.002 | 0.802 | 0.661
m1 = 2 | 1045.1 | 1041.17 | 1036.24 | 1031.32 | 1.444 | 1.112 | 0.882 | 0.724
m1 = 3 | 1062.67 | 1057.69 | 1051.58 | 1047.47 | 1.586 | 1.229 | 0.962 | 0.785
